In patent US20240117269A1, “NOVEL AROMATIC MONOTHIOKETALS AS FRAGRANCE COMPOUNDS” (SYMRISE AG, priority 2019, published 2024):

Test: Odor detection threshold (ODT), dynamic olfactometer TO8, expert group, EN 13725
Conditions: in air
Method: The odor perception threshold, i.e. the ODT value (“odor detection threshold”), was determined using a dynamic olfactometer designated TO8 and a group of experts in accordance with the EN 13725 standard, in which an odorous air sample is diluted with clean air. The dilution is presented to the test persons (testers) for evaluation. The odor description was carried out by a group of experts comprising 10 members.

Row | SMILES | ODT value [ng/L]
1 | CC1OCc2ccccc2S1 (centres unmarked) [2-methyl-4H-3,1-benzoxathiin] | 3.6
2 | c1ccc2c(c1)COCS2 [4H-3,1-benzoxathiin] | 43.6
